Test results published in article PMC4700278, “Molecular and Biochemical Analysis of the Estrogenic and Proliferative Properties of Vitamin E Compounds” (Frontiers in Oncology, 2016).

Target: T1, HMG-CoA reductase (HMGR) (Homo sapiens, UniProt P04035)
T1 construct: endogenous in cells; host or cells: MCF-7, T47D, MDA-MB-231 (microsomal fraction)
T1 sequence (P04035 1-888): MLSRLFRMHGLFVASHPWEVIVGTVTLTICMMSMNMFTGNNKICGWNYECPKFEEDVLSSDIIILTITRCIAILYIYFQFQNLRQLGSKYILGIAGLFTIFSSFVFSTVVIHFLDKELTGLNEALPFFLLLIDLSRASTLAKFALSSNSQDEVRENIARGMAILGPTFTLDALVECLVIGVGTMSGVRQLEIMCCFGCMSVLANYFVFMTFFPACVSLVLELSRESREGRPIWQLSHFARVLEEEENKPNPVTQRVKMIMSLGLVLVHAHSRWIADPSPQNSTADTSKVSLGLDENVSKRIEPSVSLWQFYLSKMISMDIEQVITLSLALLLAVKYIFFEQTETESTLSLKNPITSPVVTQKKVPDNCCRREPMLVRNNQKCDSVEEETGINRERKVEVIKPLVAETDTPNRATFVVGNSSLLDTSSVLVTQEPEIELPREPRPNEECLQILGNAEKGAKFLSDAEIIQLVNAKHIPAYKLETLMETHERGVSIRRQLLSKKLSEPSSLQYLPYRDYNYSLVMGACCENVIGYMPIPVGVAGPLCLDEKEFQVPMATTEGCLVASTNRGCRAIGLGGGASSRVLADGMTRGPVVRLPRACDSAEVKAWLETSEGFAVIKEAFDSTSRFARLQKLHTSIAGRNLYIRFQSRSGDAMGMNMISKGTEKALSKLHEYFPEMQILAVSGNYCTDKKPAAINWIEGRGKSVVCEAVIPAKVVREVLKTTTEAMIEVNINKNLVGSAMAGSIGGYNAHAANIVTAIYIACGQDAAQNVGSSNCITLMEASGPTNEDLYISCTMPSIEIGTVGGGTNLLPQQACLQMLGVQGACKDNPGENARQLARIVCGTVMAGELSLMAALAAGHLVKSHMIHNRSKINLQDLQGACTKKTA
Assay: HMG-CoA reductase activity in microsomal fraction of treated cells
Format: cell-based
Details: MCF-7, T47D and MDA-MB-231 cells treated with 500 μM; compared to solvent vehicle-treated cells
Procedure: Figure 4 Effect of tocol on ER(+) and ER(−) BC cell proliferation and HMG-CoA reductase activity. (A) Effect of δ-tocols on estrogen and non-estrogen-regulated growth of MCF-7, T47D, and MDA-MB-231 cells. […] Cells were also treated with 30 μM lovastatin (Lova) in the presence or absence of 5 mM M, as described in Section “Materials and Methods.” Values are shown as means and vertical bars represent SEM. The data were analyzed by two-way ANOVA, followed by Bonferroni post hoc test. ***P < 0.001, **P < 0.01, and *P < 0.05 in comparison with control or bare-linked specific control. Ns: not significant. (B) Effect of δ-TT on hydroxymethylglutaryl coenzyme A reductase (HMGR) activity in MCF-7, T47D, and MDA-MB-231 cells. […] Data shown are the mean values ± SEM from three independent experiments performed in triplicate.

effect on HMGR activity	Structure (SMILES)
not	Cc1cc(O)cc2c1OC(C)(CCCC(C)CCCC(C)CCCC(C)C)CC2 (centres unmarked) [δ-TP, δ-tocopherol]
inhibition of HMGR activity	CC(C)=CCC/C(C)=C/CC/C(C)=C/CC[C@]1(C)CCc2cc(O)cc(C)c2O1 [δ-TT, δ-tocotrienol]
